The record followed here is patent US11524938B2, “Aromatic sulfonamide derivatives” (Bayer Pharma Aktiengesellschaft, priority 2016, dated 2022).

The term IC50 denotes the concentration that inhibits the measured activity by half. Low readings indicate greater potency, high ones weaker potency.

For the assay, the target named is T1, human P2X4 (Homo sapiens, UniProt Q99571).
T1 sequence (Q99571 1-388): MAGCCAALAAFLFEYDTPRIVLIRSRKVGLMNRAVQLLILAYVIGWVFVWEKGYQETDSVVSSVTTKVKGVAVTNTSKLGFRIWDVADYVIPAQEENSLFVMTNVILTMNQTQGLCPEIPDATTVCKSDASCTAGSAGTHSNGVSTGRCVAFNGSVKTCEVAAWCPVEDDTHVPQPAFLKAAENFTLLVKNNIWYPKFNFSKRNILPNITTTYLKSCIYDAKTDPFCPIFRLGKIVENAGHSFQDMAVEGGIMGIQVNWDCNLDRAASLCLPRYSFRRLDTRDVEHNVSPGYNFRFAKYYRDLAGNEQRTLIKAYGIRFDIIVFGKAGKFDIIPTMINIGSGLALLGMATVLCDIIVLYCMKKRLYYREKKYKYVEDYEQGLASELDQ
Briefly: Human P2X4 HEK Cell FLIPR Assay. The format is cell-based. The conditions noted are these: agonist Bz-ATP at EC80; for Emax: HEK293, HEK293 cells, percentage of maximal inhibition, read-out: Human P2X4 HEK Cells (FLIPR Assay) avg Efficacy [%]; for IC50: HEK293 cells, individual values listed where some fall outside detection range. Put shortly:
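Calcium flux read by FLIPR for 120 sec after Bz-ATP challenge at EC80 (established each assay day), following 30 min room-temperature compound preincubation in dye-loaded stable human P2X4 HEK293 cells. Peak RFU over basal normalized to agonist control; IC50, maximal inhibition and Hill coefficient from triplicate means.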

Molecules are shown by their SMILES.

Turning to `NS(=O)(=O)c1cc(NC(=O)C(F)(F)c2ccccc2Cl)ccc1-n1cc(Cl)cn1` [Example 109, 2-(2-Chlorophenyl)-N-[4-(4-chloro-1H-pyrazol-1-yl)-3-sulfamoylphenyl]-2,2-difluoroacetamide], the Emax turned out to be 86% and the 50% inhibitory concentration (IC50) was determined as 655 nM.
In the case of `NS(=O)(=O)c1cc(NC(=O)Cc2ccccc2[N+](=O)[O-])ccc1-n1cc(C(F)(F)F)cn1` [Example 110, 2-(2-Nitrophenyl)-N-{3-sulfamoyl-4-[4-(trifluoromethyl)-1H-pyrazol-1-yl]phenyl}-acetamide], the Emax was found to be 51% and the IC50 came out at 267 nM.
For `NS(=O)(=O)c1cc(NC(=O)Cc2ccc(Cl)cc2Cl)ccc1-n1cc(C(F)(F)F)cn1` [Example 111, 2-(2,4-Dichlorophenyl)-N-{3-sulfamoyl-4-[4-(trifluoromethyl)-1H-pyrazol-1-yl]phenyl}-acetamide], the Emax worked out at 58% and the IC50 came to 373 nM.
As to `COc1ccccc1CC(=O)Nc1ccc(-n2cc(C(F)(F)F)cn2)c(S(N)(=O)=O)c1` [Example 112, 2-(2-Methoxyphenyl)-N-{3-sulfamoyl-4-[4-(trifluoromethyl)-1H-pyrazol-1-yl]phenyl}-acetamide], the Emax turned out to be 62% and the IC50 is 263 nM.
As for `NS(=O)(=O)c1cc(NC(=O)Cc2c(F)cccc2Cl)ccc1-n1cc(C(F)(F)F)cn1` [Example 113, 2-(2-Chloro-6-fluorophenyl)-N-{3-sulfamoyl-4-[4-(trifluoromethyl)-1H-pyrazol-1-yl]phenyl}acetamide], the Emax came to 86% and the IC50 amounted to 133 nM.
Take `NS(=O)(=O)c1cc(NC(=O)Cc2cccc(F)c2)ccc1-n1cc(C(F)(F)F)cn1` [Example 114, 2-(3-Fluorophenyl)-N-{3-sulfamoyl-4-[4-(trifluoromethyl)-1H-pyrazol-1-yl]phenyl}-acetamide]: the Emax was 69% and the IC50 is 367 nM.
For `NS(=O)(=O)c1cc(NC(=O)Cc2cc(F)cc(F)c2)ccc1-n1cc(C(F)(F)F)cn1` [Example 115, 2-(3,5-Difluorophenyl)-N-{3-sulfamoyl-4-[4-(trifluoromethyl)-1H-pyrazol-1-yl]phenyl}-acetamide] the same measures were 57% and 802 nM.
For `NS(=O)(=O)c1cc(NC(=O)Cc2c(Cl)cccc2Cl)ccc1-n1cc(C(F)(F)F)cn1` [Example 116, 2-(2,6-Dichlorophenyl)-N-{3-sulfamoyl-4-[4-(trifluoromethyl)-1H-pyrazol-1-yl]phenyl}-acetamide] the same measures were 75% and 155 nM.
`NS(=O)(=O)c1cc(NC(=O)Cc2ccccc2Br)ccc1-n1cc(C(F)(F)F)cn1` [Example 117, 2-(2-Bromophenyl)-N-{3-sulfamoyl-4-[4-(trifluoromethyl)-1H-pyrazol-1-yl]phenyl}-acetamide]: the Emax came out at 66% and the IC50 turned out to be 102 nM.
For the compound `NS(=O)(=O)c1cc(NC(=O)Cc2ccc(F)c(F)c2)ccc1-n1cc(C(F)(F)F)cn1` [Example 118, 2-(3,4-Difluorophenyl)-N-{3-sulfamoyl-4-[4-(trifluoromethyl)-1H-pyrazol-1-yl]phenyl}-acetamide], the Emax was 53% and the IC50 was 347 nM.
As for `NS(=O)(=O)c1cc(NC(=O)Cc2ccc(F)cc2)ccc1-n1cc(C(F)(F)F)cn1` [Example 119, 2-(4-Fluorophenyl)-N-{3-sulfamoyl-4-[4-(trifluoromethyl)-1H-pyrazol-1-yl]phenyl}-acetamide], the Emax turned out to be 55% and the IC50 is 270 nM.
With `NS(=O)(=O)c1cc(NC(=O)Cc2cccc(Cl)c2)ccc1-n1cc(C(F)(F)F)cn1` [Example 120, 2-(3-Chlorophenyl)-N-{3-sulfamoyl-4-[4-(trifluoromethyl)-1H-pyrazol-1-yl]phenyl}-acetamide], the Emax came to 31% and the IC50 is > 25000 nM.
`COc1ccc(CC(=O)Nc2ccc(-n3cc(C(F)(F)F)cn3)c(S(N)(=O)=O)c2)cc1` [Example 121, 2-(4-Methoxyphenyl)-N-{3-sulfamoyl-4-[4-(trifluoromethyl)-1H-pyrazol-1-yl]phenyl}-acetamide]: the Emax amounted to 70% and the IC50 came to 292 nM.
With `NS(=O)(=O)c1cc(NC(=O)Cc2cccc(F)c2F)ccc1-n1cc(C(F)(F)F)cn1` [Example 122, 2-(2,3-Difluorophenyl)-N-{3-sulfamoyl-4-[4-(trifluoromethyl)-1H-pyrazol-1-yl]phenyl}-acetamide], the Emax stood at 88% and the IC50 worked out at 266 nM.
For the compound `Cc1ccccc1CC(=O)Nc1ccc(-n2cc(C(F)(F)F)cn2)c(S(N)(=O)=O)c1` [Example 123, 2-(2-Methylphenyl)-N-{3-sulfamoyl-4-[4-(trifluoromethyl)-1H-pyrazol-1-yl]phenyl}-acetamide], the Emax amounted to 79% and the IC50 came to 109 nM.
`Cc1cccc(CC(=O)Nc2ccc(-n3cc(C(F)(F)F)cn3)c(S(N)(=O)=O)c2)c1` [Example 124, 2-(3-Methylphenyl)-N-{3-sulfamoyl-4-[4-(trifluoromethyl)-1H-pyrazol-1-yl]phenyl}-acetamide]: the Emax amounted to 62% and the half-maximal inhibitory concentration (IC50) stood at 166 nM.
In the case of `NS(=O)(=O)c1cc(NC(=O)Cc2ccccc2OC(F)F)ccc1-n1cc(C(F)(F)F)cn1` [Example 125, 2-[2-(Difluoromethoxy)phenyl]-N-{3-sulfamoyl-4-[4-(trifluoromethyl)-1H-pyrazol-1-yl]phenyl}acetamide], the Emax was 86% and the IC50 is 292 nM.
`NS(=O)(=O)c1cc(NC(=O)Cc2cccnc2Cl)ccc1-n1cc(C(F)(F)F)cn1` [Example 126, 2-(2-Chloropyridin-3-yl)-N-{3-sulfamoyl-4-[4-(trifluoromethyl)-1H-pyrazol-1-yl]phenyl}acetamide]: the Emax came to 92% and the IC50 was 1910 nM.
For `NS(=O)(=O)c1cc(NC(=O)Cc2ccc(F)cc2Cl)ccc1-n1cc(C(F)(F)F)cn1` [Example 127, 2-(2-Chloro-4-fluorophenyl)-N-{3-sulfamoyl-4-[4-(trifluoromethyl)-1H-pyrazol-1-yl]phenyl}acetamide] the same measures were 85% and 209 nM.
As to `Cc1ccc(Cl)c(CC(=O)Nc2ccc(-n3cc(C(F)(F)F)cn3)c(S(N)(=O)=O)c2)c1` [Example 128, 2-(2-Chloro-5-methylphenyl)-N-{3-sulfamoyl-4-[4-(trifluoromethyl)-1H-pyrazol-1-yl]-phenyl}acetamide], the Emax was 91% and the concentration for half-maximal inhibition (IC50) is 107 nM.
Regarding `NS(=O)(=O)c1cc(NC(=O)Cc2ccccc2OC(F)(F)F)ccc1-n1cc(C(F)(F)F)cn1` [Example 129, N-{3-Sulfamoyl-4-[4-(trifluoromethyl)-1H-pyrazol-1-yl]phenyl}-2-[2-(trifluoro-methoxy)phenyl]acetamide], the Emax stood at 89% and the IC50 turned out to be 157 nM.
Turning to `NS(=O)(=O)c1cc(NC(=O)Cc2cc(F)c(F)cc2Cl)ccc1-n1cc(C(F)(F)F)cn1` [Example 130, 2-(2-Chloro-4,5-difluorophenyl)-N-{3-sulfamoyl-4-[4-(trifluoromethyl)-1H-pyrazol-1-yl]phenyl}acetamide], the Emax came out at 71% and the IC50 is 284 nM.
